Laboratory results published in patent US12649751B2 (Arcus Biosciences, Inc., priority 2022, dated 2026).
Where two headings read alike, the source gives them in different places.

What was measured:
[1] = test system: p-SLP-76 (Ser376) in Jurkat cells; test: pSLP76 Cellular Assay (AlphaLISA SureFire Ultra p-SLP-76 (Ser376), anti-CD3 activated Jurkat cells); assay type: cell-based; conditions: Homo sapiens, read-out: Cellular Potency
In short: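 Read-out is AlphaLISA p-SLP-76 (Ser376) signal at 570 nm in Jurkat lysates, with IC50 fitted by 4-parameter logistic. Cells were starved overnight, exposed 1 h at 37 °C to 22 twofold compound dilutions in HBSS, then activated 45 min with anti-CD3 (0.025 mg/ml stock added).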

HPK1 = HPK1 (Homo sapiens, UniProt Q92918); test: HPK1 Biochemical Assay (ADP-Glo luminescence; low ATP 10 μM or high ATP 200 μM)
Sequence of HPK1 (Q92918 whole entry, species assumed): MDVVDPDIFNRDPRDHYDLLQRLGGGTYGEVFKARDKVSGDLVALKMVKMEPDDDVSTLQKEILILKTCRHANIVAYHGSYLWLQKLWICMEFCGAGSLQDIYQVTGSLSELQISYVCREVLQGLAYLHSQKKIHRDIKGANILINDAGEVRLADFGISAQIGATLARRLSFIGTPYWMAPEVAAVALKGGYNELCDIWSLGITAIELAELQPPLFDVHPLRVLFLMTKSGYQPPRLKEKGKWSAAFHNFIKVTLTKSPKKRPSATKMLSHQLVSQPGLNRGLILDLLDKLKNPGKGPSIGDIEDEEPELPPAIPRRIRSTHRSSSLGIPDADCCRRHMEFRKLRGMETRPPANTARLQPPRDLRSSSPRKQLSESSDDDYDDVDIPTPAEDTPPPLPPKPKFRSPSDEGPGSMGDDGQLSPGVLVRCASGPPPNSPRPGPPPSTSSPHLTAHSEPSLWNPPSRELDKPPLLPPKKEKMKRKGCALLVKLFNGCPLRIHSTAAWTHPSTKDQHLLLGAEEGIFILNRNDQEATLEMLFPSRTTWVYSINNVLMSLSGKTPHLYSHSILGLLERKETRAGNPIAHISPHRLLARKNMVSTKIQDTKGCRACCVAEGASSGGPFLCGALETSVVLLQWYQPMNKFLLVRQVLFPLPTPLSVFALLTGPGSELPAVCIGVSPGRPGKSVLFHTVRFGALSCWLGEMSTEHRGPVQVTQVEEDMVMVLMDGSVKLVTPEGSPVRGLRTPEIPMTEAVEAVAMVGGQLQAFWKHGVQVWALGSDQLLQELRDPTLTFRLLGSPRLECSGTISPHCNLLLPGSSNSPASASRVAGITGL

[2] = Jurkat cells, anti-CD3 stimulation, pSLP76
[3] = 2 nM HPK1, 10 μM ATP, read-out: Biochemical Potency (low ATP)
[4] = pSLP76 (Ser376) AlphaLISA, anti-CD3 activated Jurkat cells
[5] = HPK1 ADP-Glo assay, high ATP (200 μM ATP, 5 nM HPK1), read-out: Biochemical Potency (high ATP)
[6] = HPK1 ADP-Glo assay, low ATP (10 μM ATP, 2 nM HPK1), read-out: Biochemical Potency (low ATP)

IC50 [1, 2] [nM]	IC50 (HPK1; [3]) [nM]	IC50 [1, 4] [nM]	IC50 (HPK1; [5]) [nM]	IC50 (HPK1; [6]) [nM]	Compound	IC50 ([1]; Jurkat) [nM]
> 5000	> 5000	–	–	–	CN(C)Cc1ccc(N2CCOCC2)c(Nc2cc3nc(-c4c(F)cccc4F)sc3cn2)n1 [Example 276, N-[2-(2,6-Difluorophenyl)-[1,3]thiazolo[5,4-c]pyridin-6-yl]-6-[(dimethylamino)methyl]-3-(morpholin-4-yl)pyridin-2-amine]	–
–	–	100 to 1000	< 100	–	Cc1cc(Nc2cc3nc(-c4cccc(C(C)(C)O)c4F)sc3cn2)nc(N2C[C@@H]3C[C@H]2CN3C)n1 [Example 401]	–
< 100	< 100	–	–	–	Cc1cc(-c2nc3cc(Nc4ccc(C)c(O[C@H]5CCNC5)n4)ncc3s2)ccn1 [Example 172, 5-Methyl-N-[2-(2-methylpyridin-4-yl)-[1,3]thiazolo[5,4-c]pyridin-6-yl]-6-[(3S)-pyrrolidin-3-yloxy]pyridin-2-amine]	–
1000 to 5000	100 to 1000	–	–	–	CN1C[C@@H]2C[C@H]1CN2c1cncc(Nc2cc3nc(-c4cccc(S(=O)(=O)N(C)C)c4)sc3cn2)n1 [Example 288, N,N-dimethyl-3-[6-({6-[(1S,4S)-5-methyl-2,5-diazabicyclo[2.2.1]heptan-2-yl]pyrazin-2-yl}amino)-[1,3]thiazolo[5,4-c]pyridin-2-yl]benzene-1-sulfonamide]	–
–	–	100 to 1000	< 100	–	Cc1cc(Nc2cc3nc(-c4ccnc(N5C[C@@H](C)O[C@@H](C)C5)c4)sc3cn2)nc(N2C[C@@H]3C[C@H]2CN3CCO)n1 [Example 445]	–
–	–	< 100	< 100	–	Cc1cc(Nc2cc3nc(-c4ccnc(N5CCOC[C@H]5C)c4)sc3cn2)nc(N2C[C@@H]3C[C@H]2CN3CCO)n1 [Example 450]	–
> 5000	> 5000	–	–	–	CN(C)Cc1nc(Nc2cccc(F)c2-c2nc3cc(Cl)ncc3s2)ccc1N1CCOCC1 [Example 19, N-(2-{6-Chloro-[1,3]thiazolo[5,4-c]pyridin-2-yl}-3-fluorophenyl)-6-[(dimethylamino)methyl]-5-(morpholin-4-yl)pyridin-2-amine]	–
–	–	< 100	< 100	< 100	CN1C[C@@H]2C[C@H]1CN2c1nc(Nc2cc3nc(-c4cccc(C(C)(C)O)c4)sc3cn2)cc(C2CCOCC2)n1 [Example 440]	–
–	–	< 100	< 100	–	Cc1cc(Nc2cc3nc(-c4ccnc(C(C)C)c4)sc3cn2)nc(N2C[C@@H]3C[C@H]2CN3CCO)n1 [Example 354]	–
–	–	< 100	< 100	< 100	CC(C)(O)c1cccc(-c2nc3cc(Nc4cnc(C5CCOCC5)c(N5C[C@@H]6C[C@H]5CN6)n4)ncc3s2)c1 [Example 509]	–
–	–	100 to 1000	100 to 1000	–	Cc1cc(Nc2cc3nc(-c4cccc(CC(=O)N(C)C)c4)sc3cn2)nc(N2C[C@@H]3C[C@H]2CN3C)n1 [Example 395]	–
–	–	1000 to 5000	–	< 100	Cc1cccnc1-c1nc2cc(Nc3ccc4c(n3)[C@](C)(N)CC4)ncc2s1 [Example 577]	–
–	–	1000 to 5000	100 to 1000	–	CC(=O)N1CCC(n2cc(-c3nc4cc(Nc5cc(C)nc(N6C[C@@H]7C[C@H]6CN7C)n5)ncc4s3)cn2)CC1 [Example 571]	–
100 to 1000	< 100	–	–	–	CN1C[C@@H]2C[C@H]1CN2c1nccc(Nc2cc3nc(-c4ccncc4)sc3cn2)n1 [Example 159, 2-[(1S,4S)-5-Methyl-2,5-diazabicyclo[2.2.1]heptan-2-yl]-N-[2-(pyridin-4-yl)-[1,3]thiazolo[5,4-c]pyridin-6-yl]pyrimidin-4-amine]	–
–	–	< 100	< 100	–	CCN1C[C@@H]2C[C@H]1CN2c1nc(C)cc(Nc2cc3nc(-c4cccc(C(=O)N5CCCC5(C)C)c4)sc3cn2)n1 [Example 520]	–
100 to 1000	< 100	–	–	–	Cc1cc(-c2nc3cc(Nc4ccc(C5CCOCC5)c(CN5CCC(F)(F)C5)n4)ncc3s2)ccn1 [Example 220, 6-[(3,3-Difluoropyrrolidin-1-yl)methyl]-N-[2-(2-methylpyridin-4-yl)-[1,3]thiazolo[5,4-c]pyridin-6-yl]-5-(oxan-4-yl)pyridin-2-amine]	–
100 to 1000	< 100	–	–	–	Cc1cccnc1-c1nc2cc(Nc3ccc(N4CCC(F)(F)C4)c(CN4CCCC4)n3)ncc2s1 [Example 9, 5-(3,3-Difluoropyrrolidin-1-yl)-N-[2-(3-methylpyridin-2-yl)-[1,3]thiazolo[5,4-c]pyridin-6-yl]-6-[(pyrrolidin-1-yl)methyl]pyridin-2-amine]	–
–	–	100 to 1000	< 100	–	COCCn1cc(-c2nc3cc(Nc4cc(C)nc(N5C[C@@H]6C[C@H]5CN6C)n4)ncc3s2)cn1 [Example 376]	–
–	–	< 100	< 100	–	Cc1cc(Nc2cc3nc(-c4cccc(S(=O)(=O)C5CC5)c4)sc3cn2)nc(N2C[C@@H]3C[C@H]2CN3CCO)n1 [Example 500]	–
–	–	1000 to 5000	< 100	–	CC(=O)N1CCC(N2C[C@@H]3C[C@H]2CN3c2nc(C)cc(Nc3cc4nc(-c5cccc(C(=O)N(C)C)c5)sc4cn3)n2)CC1 [Example 332]	–
–	–	100 to 1000	< 100	–	CCN1C[C@@H]2C[C@H]1CN2c1nc(C)cc(Nc2cc3nc(-c4cncc(OCC5CC5)c4)sc3cn2)n1 [Example 422]	–
100 to 1000	< 100	–	–	–	Cc1cccnc1-c1nc2cc(Nc3ccc(C)c(N4C[C@@H](N)C[C@H]4CO)n3)ncc2s1 [Example 65, [(2S,4S)-4-Amino-1-(3-methyl-6-{[2-(3-methylpyridin-2-yl)-[1,3]thiazolo[5,4-c]pyridin-6-yl]amino}pyridin-2-yl)pyrrolidin-2-yl]methanol]	–
100 to 1000	< 100	–	–	–	Cc1cccnc1-c1nc2cc(Nc3ccc([C@@H]4CCOC4)c(CN4CCCC4)n3)ncc2s1 (single isomer, unassigned) [Example 259, N-[2-(3-Methylpyridin-2-yl)-[1,3]thiazolo[5,4-c]pyridin-6-yl]-5-[(3R or 3S)-oxolan-3-yl]-6-[(pyrrolidin-1-yl)methyl]pyridin-2-amine]	–
–	–	100 to 1000	< 100	–	Cc1cc(Nc2cc3nc(-c4cccc(C(=O)N5C[C@H]6C[C@@H]5CO6)c4)sc3cn2)nc(N2C[C@@H]3C[C@H]2CN3CCO)n1 [Example 563]	–
–	–	100 to 1000	< 100	< 100	c1cnn(-c2nc3cc(Nc4ccnc(N5C[C@@H]6C[C@H]5CN6)n4)ncc3s2)c1 [Example 431]	–
100 to 1000	< 100	–	–	–	Cc1cc(-c2nc3cc(Nc4ccc(C5CCOCC5)c(CN[C@H]5CCOC5)n4)ncc3s2)ccn1 [Example 221, N-[2-(2-Methylpyridin-4-yl)-[1,3]thiazolo[5,4-c]pyridin-6-yl]-5-(oxan-4-yl)-6-({[(3S)-oxolan-3-yl]amino}methyl)pyridin-2-amine]	–
–	–	100 to 1000	< 100	–	Cc1cc(Nc2cc3nc(-c4cccc(NC(=O)C5CC5)c4)sc3cn2)nc(N2C[C@@H]3C[C@H]2CN3C)n1 [Example 392]	–

Compound	IC50 [1, 2] [nM]	IC50 (HPK1; [3]) [nM]	IC50 [1, 4] [nM]	IC50 (HPK1; [5]) [nM]	IC50 (HPK1; [6]) [nM]	IC50 ([1]; Jurkat) [nM]
CN(C)Cc1nc(Nc2cc3nc(-c4c(F)cccc4F)sc3cn2)ccc1N1CCOCC1 [Example 1, N-[2-(2,6-Difluorophenyl)-[1,3]thiazolo[5,4-c]pyridin-6-yl]-6-[(dimethylamino)methyl]-5-(morpholin-4-yl)pyridin-2-amine]	–	< 100	–	–	–	> 5000
